Source: patent publication US20220306695A1, “COMPSTATIN ANALOGUES AND THEIR MEDICAL USES” (priority 2019, published 2022)
Read-outs that look alike come from different tables or passages of the source. Starred links: 1 amine or outer side, 2 acyl side, 3 side chain; linkers in the order of their positions; H or OH if unused. Positions of bridges follow the written chain, without caps; N, C: chain ends. Non-standard residues stand in square brackets, D forms with d. Residues, ends and D or L forms follow the SMILES beside them. Groups on a side chain read outwards from the residue. *: point of attachment. Trp(1-Me) = Cn1cc(C[C@H](N)C(=O)O)c2ccccc21; Abu(4-yl) = O=C([C@H](CC[*:3])N[*:1])[*:2]; C18 diacid = O=C(O)CCCCCCCCCCCCCCCCC(=O)*; C16 diacid = O=C(O)CCCCCCCCCCCCCCC(=O)*; γGlu = O=C(O)[C@H](CCC(=O)[*:2])N[*:1]; AEEA = NCCOCCOCC(=O)O; Sar = CNCC(=O)O

Test system: classical complement pathway
Test: In vitro haemolysis assay (inhibition of classical complement pathway)
Assay type: cell-based, human
Experimental: Method The in vitro effect of test compounds was assessed by measuring their inhibitory effect of the classical complement pathway in a haemolysis assay. Briefly, test compounds and reference compounds were dissolved in DMSO and diluted in Tris/Casein Assay Buffer (10 mM Tris, 145 mM NaCl, 0.5 mM MgCl2, 0.15 mM CaCl2, and 0.1% W/V Casein, adjusted to pH 7.4) as 9-point serial dilutions in a 96 well plate. Sensitized sheep red blood cells (RBC) coated with rabbit anti-sheep erythrocyte antiserum (Complement Technology, Inc., TX, USA) were washed in Tris/Casein Assay Buffer. 50 μL from each well of diluted compound was added to a 96-well plate containing 50 μL diluted human serum (Complement Technology, Inc., TX, USA) and incubated for 15 minutes at room temperature. The serum dilution factor was optimized for every serum batch to obtain 70-90% of maximal haemolysis using the protocol. Then 50 μL sensitized sheep red blood cells were added to all wells ([…] per well). After 30 minutes of incubation at 37° C. with gentle agitation, the reaction was stopped by addition of 50 μL Tris STOP Buffer per well (10 mM EDTA, 10 mM Tris, 145 mM NaCl adjusted to pH 7.4). The RBCs were then removed by centrifugation and the resulting supernatant measured for hemolysis by absorbance at 405 nm. The response was normalized relative to a positive and negative control (vehicle) to calculate the IC50 from the concentration response curve using the 4-parameter logistic (4PL) nonlinear model for curve fitting.

[1] = Table 3, human serum, sensitized sheep red blood cells, read-out: IC50[nM], in vitro analysis of inhibition of hemolysis
[2] = Table 4, valine 3 versus isoleucine 3 pairs, read-out: CP hemolysis IC50

Row | Structure (SMILES) | IC50 [1] [nM] | IC50 [2] [nM] | also measured
1 | CC[C@H](C)[C@H](NC(=O)[C@H](C)NC(=O)[C@H](CO)NC(=O)[C@H](CO)NC(=O)[C@H](CCC(=O)O)NC(=O)CCCCCCCCCCCCCCC(=O)O)C(=O)N[C@H]1CSSC[C@@H](C(=O)N[C@H](C(=O)N[C@@H](CCC(=O)O)C(=O)NCC(=O)N[C@@H](CCC(=O)O)C(N)=O)[C@@H](C)O)NC(=O)[C@H](CCCNC(=N)N)NC(=O)[C@H](Cc2c[nH]cn2)NC(=O)[C@H](CCC(=O)O)NC(=O)CNC(=O)[C@H](Cc2c[nH]c3ccccc23)NC(=O)[C@H](CC(=O)O)NC(=O)[C@H](CCC(N)=O)NC(=O)[C@H](Cc2c[nH]c3ccccc23)NC(=O)[C@H]([C@@H](C)CC)NC1=O [Compound 99] ({C16 diacid}-ESSAICIWQDWGEHRCTEGE-NH2; disulfide 6-16) | < 250 |  | 
2 | CC[C@H](C)[C@H](NC(=O)[C@H](C)NC(=O)[C@H](CO)NC(=O)CNC(=O)[C@H](CCCCNC(=O)COCCOCCNC(=O)COCCOCCNC(=O)CC[C@H](NC(=O)CCCCCCCCCCCCCCC(=O)O)C(=O)O)NC(C)=O)C(=O)N[C@H]1CSSC[C@@H](C(=O)N[C@H](C(=O)N[C@@H](CCC(=O)O)C(=O)NCC(=O)N[C@@H](CCC(=O)O)C(N)=O)[C@@H](C)O)NC(=O)[C@H](CCCNC(=N)N)NC(=O)[C@H](Cc2c[nH]cn2)NC(=O)[C@H](CCC(=O)O)NC(=O)CNC(=O)[C@H](Cc2c[nH]c3ccccc23)NC(=O)[C@H](CC(=O)O)NC(=O)[C@H](CCC(N)=O)NC(=O)[C@H](Cc2c[nH]c3ccccc23)NC(=O)[C@H]([C@@H](C)CC)NC1=O [Compound 100] (Ac-K([AEEA-AEEA-γGlu-C16 diacid])GSAICIWQDWGEHRCTEGE-NH2; disulfide 6-16) | < 500 |  | 
3 | CC[C@H](C)[C@H](NC(C)=O)C(=O)N[C@H]1CSSC[C@@H](C(=O)N[C@H](C(N)=O)[C@@H](C)O)NC(=O)[C@H](CO)NC(=O)[C@H](Cc2c[nH]cn2)NC(=O)[C@H](CCC(=O)O)NC(=O)CNC(=O)[C@H](Cc2c[nH]c3ccccc23)NC(=O)[C@H](CC(=O)O)NC(=O)[C@H](CCC(N)=O)NC(=O)[C@H](Cc2c[nH]c3ccccc23)NC(=O)[C@H](C(C)C)NC1=O [F, reference compound] (Ac-ICVWQDWGEHSCT-NH2; disulfide 2-12) |  | 540 | 
4 | CC[C@H](C)[C@@H]1NC(=O)[C@@H](NC(=O)[C@H](Cc2ccc(O)cc2)NC(=O)[C@H](C)NC(=O)[C@H](CO)NC(=O)CNC(=O)[C@H](CCC(=O)O)NC(C)=O)CSSC[C@@H](C(=O)N(C)CC(=O)N[C@@H](CCC(=O)O)C(=O)NCC(=O)N[C@@H](CCCCN)C(=O)N[C@@H](CCCCNC(=O)CC[C@H](NC(=O)CNC(=O)CC[C@H](NC(=O)CCCCCCCCCCCCCCCCC(=O)O)C(=O)O)C(=O)O)C(N)=O)NC(=O)[C@H](CCCNC(=N)N)NC(=O)[C@H](Cc2c[nH]cn2)NC(=O)[C@H](CCC(=O)O)NC(=O)CNC(=O)[C@H](Cc2c[nH]c3ccccc23)NC(=O)[C@H](CC(=O)O)NC(=O)[C@H](CCC(N)=O)NC(=O)[C@H](Cc2cn(C)c3ccccc23)NC1=O [Compound 110] (Ac-EGSAYCI[Trp(1-Me)]QDWGEHRC[Sar]EGKK([γGlu-Gly-γGlu-C18 diacid])-NH2; disulfide 6-16) | < 250 |  | 
5 | CC[C@H](C)[C@@H]1NC(=O)[C@@H](NC(=O)[C@H](Cc2ccccc2)NC(=O)[C@H](CCC(=O)O)NC(=O)[C@H](CO)NC(C)=O)CSCC[C@@H](C(=O)N(C)CC(=O)N[C@@H](CCC(=O)O)C(=O)NCC(=O)N[C@@H](C)C(=O)N[C@@H](CCCCNC(=O)COCCOCCNC(=O)CC[C@H](NC(=O)COCCOCCNC(=O)CNC(=O)CC[C@H](NC(=O)CCCCCCCCCCCCCCCCC(=O)O)C(=O)O)C(=O)O)C(N)=O)NC(=O)[C@H](CCCNC(=N)N)NC(=O)[C@H](Cc2c[nH]cn2)NC(=O)[C@H](CCC(=O)O)NC(=O)CNC(=O)[C@H](Cc2c[nH]c3ccccc23)NC(=O)[C@H](CC(=O)O)NC(=O)[C@H](CCC(N)=O)NC(=O)[C@H](Cc2cn(C)c3ccccc23)NC1=O [Compound 154, Ac-SEFA(1)I[1-Me-Trp]QDWGEHRhC(1)[Sar]EGA-K([17-carboxy-heptadecanoyl][γGlu]G[Peg3][γGlu][Peg3])-NH2] (Ac-SEFCI[Trp(1-Me)]QDWGEHR[Abu(4-yl)][Sar]EGAK([AEEA-γGlu-AEEA-Gly-γGlu-C18 diacid])-NH2; thioether 4-14) | < 100 |  | 
6 | CC[C@H](C)[C@H](NC(C)=O)C(=O)N[C@H]1CSSC[C@@H](C(=O)N[C@H](C(N)=O)[C@@H](C)O)NC(=O)[C@H](CCCNC(=N)N)NC(=O)[C@H](Cc2c[nH]cn2)NC(=O)[C@H](CO)NC(=O)CNC(=O)[C@H](Cc2c[nH]c3ccccc23)NC(=O)[C@H](CC(=O)O)NC(=O)[C@H](CCC(N)=O)NC(=O)[C@H](Cc2c[nH]c3ccccc23)NC(=O)[C@H]([C@@H](C)CC)NC1=O [Compound 6] (Ac-ICIWQDWGSHRCT-NH2; disulfide 2-12) | < 250 | 140 | 
7 | CC[C@H](C)[C@H](NC(C)=O)C(=O)N[C@H]1CSSC[C@@H](C(=O)N[C@H](C(=O)N[C@@H](CCC(=O)O)C(=O)NCC(=O)N[C@@H](CCCCNC(=O)CC[C@H](NC(=O)CCCCCCCCCCCCCCC(=O)O)C(=O)O)C(N)=O)[C@@H](C)O)NC(=O)[C@H](CCCNC(=N)N)NC(=O)[C@H](Cc2c[nH]cn2)NC(=O)[C@H](CCC(=O)O)NC(=O)CNC(=O)[C@H](Cc2c[nH]c3ccccc23)NC(=O)[C@H](CC(=O)O)NC(=O)[C@H](CCC(N)=O)NC(=O)[C@H](Cc2c[nH]c3ccccc23)NC(=O)[C@H]([C@@H](C)CC)NC1=O [Compound 92] (Ac-ICIWQDWGEHRCTEGK([γGlu-C16 diacid])-NH2; disulfide 2-12) | < 1000 |  | 
8 | CC[C@H](C)[C@@H]1NC(=O)[C@@H](NC(=O)[C@H](Cc2ccccc2)NC(=O)[C@H](CCC(=O)O)NC(=O)[C@H](CO)NC(C)=O)CSSC[C@@H](C(=O)N[C@H](C(=O)N[C@@H](CCC(=O)O)C(=O)N[C@@H](CCCCN)C(=O)N[C@@H](CCC(=O)NCC(=O)NCC(=O)NCC(=O)N[C@@H](CCCCNC(=O)CC[C@H](NC(=O)CNC(=O)CC[C@H](NC(=O)CCCCCCCCCCCCCCCCC(=O)O)C(=O)O)C(=O)O)C(N)=O)C(=O)O)[C@@H](C)O)NC(=O)[C@H](CCCNC(=N)N)NC(=O)[C@H](Cc2c[nH]cn2)NC(=O)[C@H](CCC(=O)O)NC(=O)CNC(=O)[C@H](Cc2c[nH]c3ccccc23)NC(=O)[C@H](CC(=O)O)NC(=O)[C@H](CCC(N)=O)NC(=O)[C@H](Cc2cn(C)c3ccccc23)NC1=O [Compound 133] (Ac-SEFCI[Trp(1-Me)]QDWGEHRCTEK[γGlu]GGGK([γGlu-Gly-γGlu-C18 diacid])-NH2; disulfide 4-14) | < 100 |  | 
9 | CC[C@H](C)[C@H](NC(C)=O)C(=O)N[C@H]1CSSC[C@@H](C(=O)N[C@H](C(N)=O)[C@@H](C)O)NC(=O)[C@H](CCCNC(=N)N)NC(=O)[C@H](Cc2c[nH]cn2)NC(=O)[C@H](CCC(=O)O)NC(=O)CNC(=O)[C@H](Cc2c[nH]c3ccccc23)NC(=O)[C@H](CC(=O)O)NC(=O)[C@H](CCC(N)=O)NC(=O)[C@H](Cc2c[nH]c3ccccc23)NC(=O)[C@H](C(C)C)NC1=O [A, reference compound] (Ac-ICVWQDWGEHRCT-NH2; disulfide 2-12) |  | 350 | IC50 (Table 5, different residues at position 3 of Ac-IC(1)XWQDWGEHRC(1)T-NH2, read-out: IC50, CP hemolysis): 350 nM
10 | CC[C@H](C)[C@@H]1NC(=O)[C@@H](NC(=O)[C@H](Cc2ccccc2)NC(C)=O)CSSC[C@@H](C(=O)N[C@H](C(N)=O)[C@@H](C)O)NC(=O)[C@H](CCCNC(=N)N)NC(=O)[C@H](Cc2c[nH]cn2)NC(=O)[C@H](CCC(=O)O)NC(=O)CNC(=O)[C@H](Cc2c[nH]c3ccccc23)NC(=O)[C@H](CC(=O)O)NC(=O)[C@H](CCC(N)=O)NC(=O)[C@H](Cc2c[nH]c3ccccc23)NC1=O [Compound 23] (Ac-FCIWQDWGEHRCT-NH2; disulfide 2-12) | < 100 |  | 
11 | CC[C@H](C)[C@H](NC(C)=O)C(=O)N[C@H]1CSSC[C@@H](C(=O)N[C@H](C(N)=O)[C@@H](C)O)NC(=O)[C@H](CO)NC(=O)[C@H](Cc2c[nH]cn2)NC(=O)[C@H](C)NC(=O)CNC(=O)[C@H](Cc2c[nH]c3ccccc23)NC(=O)[C@H](CC(=O)O)NC(=O)[C@H](CCC(N)=O)NC(=O)[C@H](Cc2c[nH]c3ccccc23)NC(=O)[C@H]([C@@H](C)CC)NC1=O [Compound 19] (Ac-ICIWQDWGAHSCT-NH2; disulfide 2-12) | < 250 | 140 | 
12 | CC[C@H](C)[C@H](NC(=O)[C@H](C)NC(=O)[C@H](CO)NC(=O)CNC(=O)[C@H](CCC(=O)O)NC(C)=O)C(=O)N[C@H]1CSSC[C@@H](C(=O)N(C)CC(=O)N[C@@H](CCC(=O)O)C(N)=O)NC(=O)[C@H](CCCNC(=N)N)NC(=O)[C@H](Cc2c[nH]cn2)NC(=O)[C@H](CCC(=O)O)NC(=O)CNC(=O)[C@H](Cc2c[nH]c3ccccc23)NC(=O)[C@H](CC(=O)O)NC(=O)[C@H](CCC(N)=O)NC(=O)[C@H](Cc2c[nH]c3ccccc23)NC(=O)[C@H](C(C)C)NC1=O [H, reference compound] (Ac-EGSAICVWQDWGEHRC[Sar]E-NH2; disulfide 6-16) |  | 330 | 
13 | CC[C@H](C)[C@H](N)C(=O)N[C@H]1CSSC[C@@H](C(=O)N[C@H](C(N)=O)[C@@H](C)O)NC(=O)[C@H](CCCN=C(N)N)NC(=O)[C@H](Cc2cnc[nH]2)NC(=O)[C@H](Cc2cnc[nH]2)NC(=O)CNC(=O)[C@H](Cc2c[nH]c3ccccc23)NC(=O)[C@H](CC(=O)O)NC(=O)[C@H](CCC(N)=O)NC(=O)[C@H](C(C)C)NC(=O)[C@H](C(C)C)NC1=O [Compstatin] |  |  | IC50 (Table 3, cells that print μM, read-out: IC50, in vitro analysis of inhibition of hemolysis): > 5000 nM
